Source: publication PMC5011342, “A high throughput drug screening assay to identify compounds that promote oligodendrocyte differentiation using acutely dissociated and purified oligodendrocyte precursor cells” (BMC Research Notes, 2016)
pEC50: −log10 of the molar value. Where two headings read alike, the source gives them in different places.

Key:
expanded OPCs = test: cells; conditions: for viability at 0.1 µM / viability at 1 µM / viability at 10 µM: Rattus norvegicus, 72 h; for 0.1 µM (% DMSO) / 1 µM (% DMSO) / 10 µM (% DMSO): alamarBlue viability of expanded OPCs, relative to DMSO control; for 0.1 µM (% DMSO): compound at 0.1 µM; for 1 µM (% DMSO): compound at 1 µM; for 10 µM (% DMSO): compound at 10 µM
Outline: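 Toxicity screen: compounds added at 0.1, 1 and 10 µM to PDGF-AA-expanded OPCs in 96-well plates, 3-day incubation at 37 °C, 10% CO2, then alamarBlue 1:10 for 4 h with fluorescence readout. Results set screening doses of 10/2, 2/0.4 or 0.4/0.08 µM.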

[1] = test system: acutely dissociated and purified rat OPCs; test: Acute OL differentiation assay (MBP expression/cell, immunofluorescent image quantification); format: cell-based; conditions: for activation at 0.08 µM: test compound at 0.08 uM, read-out: 0.08 uM (% Quet)
Outline: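 This acute differentiation assay used purified rat OPCs from postnatal day 6–7 pups, seeded into PDL/laminin-coated 96-well plates in differentiation medium lacking PDGF and FGF. Compounds were applied in quadruplicate after a 1–2 h preincubation at 37 °C, 10 % CO2, with 0.1 % DMSO negative and 40 ng/ml T3 positive controls in eight wells. After fixation on DIV4, anti-MBP immunofluorescence images yielded MBP expression/cell.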

[2] = read-out: 0.1 µM (% DMSO), alamarBlue viability of expanded OPCs, compound at 0.1 µM, sheet All Tox data
[3] = read-out: 1 µM (% DMSO), alamarBlue viability of expanded OPCs, compound at 1 µM, sheet All Tox data
[4] = read-out: 10 µM (% DMSO), alamarBlue viability of expanded OPCs, compound at 10 µM, sheet All Tox data
[5] = Rattus norvegicus, 2 uM test compound, relative to quetiapine, sheet "All OLga data", read-out: OL differentiation, 2 uM (% Quet)
[6] = Rattus norvegicus, 10 uM test compound, relative to quetiapine, sheet "All OLga data", read-out: OL differentiation, 10 uM (% Quet)
[7] = Rattus norvegicus, test compound at 2 uM, MBP expression relative to quetiapine, NCC library screen, sheet "All OLga data", read-out: 2 uM (% Quet)
[8] = Rattus norvegicus, test compound at 10 uM, MBP expression relative to quetiapine, NCC library screen, sheet "All OLga data", read-out: 10 uM (% Quet)
[9] = read-out: 0.1 µM (% DMSO), alamarBlue viability, NCC library compound at 0.1 µM, sheet "All Tox data"
[10] = read-out: 1 µM (% DMSO), alamarBlue viability, NCC library compound at 1 µM, sheet "All Tox data"
[11] = read-out: 10 µM (% DMSO), alamarBlue viability, NCC library compound at 10 µM, sheet "All Tox data"
[12] = Rattus norvegicus, NCC library screen, sheet "All OLga data", relative to quetiapine
[13] = Rattus norvegicus, test compound at 0.4 uM, NCC library screen, sheet "All OLga data", relative to quetiapine, read-out: 0.4 uM (% Quet)
[14] = Rattus norvegicus, 0.4 uM test compound, relative to quetiapine, sheet "All OLga data", read-out: OL differentiation, 0.4 uM (% Quet)
[15] = Rattus norvegicus, test compound at 2 uM, NCC library screen, sheet "All OLga data", relative to quetiapine, read-out: 2 uM (% Quet)
[16] = test compound at 2 uM, MBP expression relative to quetiapine, NCC library screen, sheet "All OLga data"
[17] = test compound at 10 uM, MBP expression relative to quetiapine, NCC library screen, sheet "All OLga data"
[18] = Rattus norvegicus, test compound at 10 uM, NCC library screen, sheet "All OLga data", relative to quetiapine, read-out: 10 uM (% Quet)

Row | SMILES | 0.1 µM (% DMSO) (expanded OPCs) | 1 µM (% DMSO) (expanded OPCs) | 10 µM (% DMSO) (expanded OPCs) | viability at 0.1 µM (expanded OPCs; [9]) [%] | viability at 1 µM (expanded OPCs; [10]) [%] | viability at 10 µM (expanded OPCs; [11]) [%] | activation at 2 µM [1, 15] [%] | activation at 10 µM [1, 18] [%] | also measured
1 | N[C@@H]1CON=C1O [Cycloserine] | 89.7 | 97.0 | 89.5 | – | – | – | – | – | viability at 0.1 µM (expanded OPCs; [2]): 82.2%; viability at 1 µM (expanded OPCs; [3]): 87%; viability at 10 µM (expanded OPCs; [4]): 97.4%; activation at 2 µM [1, 5]: 4.1%; activation at 10 µM [1, 6]: 13.9%; activation at 2 µM [1, 7]: -13.8%; activation at 10 µM [1, 8]: -23%
2 | CN1CCC(=C2c3ccccc3C=Cc3ccccc32)CC1 [Cyproheptadine] | – | – | – | 71.2 | 49.3 | 25.2 | – | – | activation at 0.08 µM [1, 12]: -0.6%; activation at 0.4 µM [1, 13]: 10.3%
3 | Nc1ccn([C@@H]2O[C@H](CO)[C@@H](O)[C@@H]2O)c(=O)n1 [Cytarabine] | – | – | – | – | – | – | – | – | viability at 0.1 µM (expanded OPCs; [2]): 60.2%; viability at 1 µM (expanded OPCs; [3]): 56.2%; viability at 10 µM (expanded OPCs; [4]): 43.1%; activation at 0.4 µM [1, 14]: -18.7%; activation at 2 µM [1, 5]: 5.8%
4 | C[N+]1(C)CCN(c2ccccc2)CC1 [DMPP, dimethylphenylpiperazinium, reference compound] | – | – | – | 101 | 89.5 | 111 | – | – | activation at 2 µM [1, 5]: 40.6%; activation at 10 µM [1, 6]: 54.3%; pEC50 ([1]; Rattus norvegicus, average EC50 for induction of OL differentiation from independent biological replicates, eight concentrations): 4.89; hit in OL differentiation assay, MRF-TMC ([1]; ● = confirmed hit in this paper's assay): ●
5 | C#C[C@]1(O)CC[C@H]2[C@@H]3CCC4=Cc5oncc5C[C@]4(C)[C@H]3CC[C@@]21C [Danazol] | 95.3 | 92.4 | 47.1 | – | – | – | 24.1 | – | activation at 0.4 µM [1, 13]: 9.4%
6 | O.O.O=C1N=C([O-])CN1/N=C/c1ccc(-c2ccc([N+](=O)[O-])cc2)o1.[Na+] [Dantrolene sodium salt dihydrate] | 93.5 | 100.3 | 91.7 | – | – | – | – | – | 2 uM (% Quet) [1, 16]: -16.0 % Quet; 10 uM (% Quet) [1, 17]: -55.0 % Quet
7 | Nc1ccc(S(=O)(=O)c2ccc(N)cc2)cc1 [Dapsone] | 101.9 | 96.3 | 99.0 | – | – | – | -13.2 | -22.2 | –
8 | Cc1c(O)c(=O)ccn1C [Deferiprone] | – | – | – | – | – | – | – | – | viability at 0.1 µM (expanded OPCs; [2]): 91.3%; viability at 1 µM (expanded OPCs; [3]): 90.1%; viability at 10 µM (expanded OPCs; [4]): 84.8%; activation at 2 µM [1, 5]: 6.6%; activation at 10 µM [1, 6]: 37.1%
9 | C[C@H](CCC(=O)O)[C@H]1CC[C@H]2[C@@H]3C(=O)C[C@@H]4CC(=O)CC[C@]4(C)[C@H]3CC(=O)[C@]12C [Dehydrocholic Acid] | – | – | – | 101 | 106 | 109 | -12.3 | -5.3 | –
10 | C[C@]12CC[C@H](O)CC1=CC[C@@H]1[C@@H]2CC[C@]2(C)C(=O)CC[C@@H]12 [Dehydroepiandrosterone] | – | – | – | 92 | 87.5 | 83.1 | -23.8 | -57.9 | –
11 | CN(C)[C@@H]1C(O)=C(C(N)=O)C(=O)[C@@]2(O)C(O)=C3C(=O)c4c(O)ccc(Cl)c4[C@@H](O)[C@H]3C[C@@H]12 [Demeclocycline] | – | – | – | 96.3 | 90.6 | 88.4 | -7.5 | -21 | –
12 | CNCCCN1c2ccccc2CCc2ccccc21 [Desipramine] | 75.5 | 43.8 | 16.4 | – | – | – | – | – | activation at 0.08 µM ([1]; Rattus norvegicus, MBP expression relative to quetiapine, NCC library screen, sheet "All OLga data"): 8.9%; activation at 0.4 µM ([1]; Rattus norvegicus, test compound at 0.4 uM, MBP expression relative to quetiapine, NCC library screen, sheet "All OLga data", read-out: 0.4 uM (% Quet)): -5.3%
13 | Clc1ccc2c(c1)CCc1cccnc1C2=C1CCNCC1 [Desloratadine] | – | – | – | 61 | 29 | 10.5 | – | – | activation at 0.08 µM [1, 12]: -28%; activation at 0.4 µM [1, 13]: -84.8%
14 | C[C@@H]1C[C@H]2[C@@H]3CCC4=CC(=O)C=C[C@]4(C)[C@@]3(F)[C@@H](O)C[C@]2(C)[C@H]1C(=O)CO [Desoximetasone] | – | – | – | 111 | 114 | 111 | -17.9 | -33 | –
15 | C[C@@H]1C[C@H]2[C@@H]3CCC4=CC(=O)C=C[C@]4(C)[C@@]3(F)[C@@H](O)C[C@]2(C)[C@@]1(O)C(=O)CO [Dexamethasone] | 108.6 | 109.4 | 109.8 | – | – | – | – | – | activation at 2 µM [1, 7]: 1.1%; activation at 10 µM [1, 8]: -24.5%
16 | C[C@@H]1C[C@H]2[C@@H]3CCC4=CC(=O)C=C[C@]4(C)[C@@]3(F)[C@@H](O)C[C@]2(C)[C@@]1(O)C(=O)CO [Dexamethazone] | 115.8 | 108.1 | 98.4 | – | – | – | – | – | 2 uM (% Quet) [1, 16]: -1.3 % Quet; 10 uM (% Quet) [1, 17]: -8.3 % Quet
17 | COc1ccc2c(c1)[C@]13CCCC[C@@H]1[C@H](C2)N(C)CC3 [Dextromethorphan] | – | – | – | – | – | – | – | – | viability at 0.1 µM (expanded OPCs; [2]): 82.6%; viability at 1 µM (expanded OPCs; [3]): 86.9%; viability at 10 µM (expanded OPCs; [4]): 59.6%; activation at 0.4 µM [1, 14]: 10.5%; activation at 2 µM [1, 5]: 44.5%
18 | CN1C(=O)CN=C(c2ccccc2)c2cc(Cl)ccc21 [Diazepam] | – | – | – | – | – | – | – | – | viability at 0.1 µM (expanded OPCs; read-out: 0.1 µM (% DMSO)): 92.5%; viability at 1 µM (expanded OPCs; read-out: 1 µM (% DMSO)): 97.2%; viability at 10 µM (expanded OPCs; read-out: 10 µM (% DMSO)): 102%; activation at 2 µM ([1]; Rattus norvegicus, read-out: 2 uM (% Quet)): 3.8%; activation at 10 µM ([1]; Rattus norvegicus, read-out: 10 uM (% Quet)): -14.1%
19 | CC1=NS(=O)(=O)c2cc(Cl)ccc2N1 [Diazoxide] | – | – | – | 98.9 | 86.5 | 82.6 | -1.9 | -7.1 | –
20 | O=C(O)C(Cl)Cl [Dichloroacetic Acid] | – | – | – | 99.2 | 83.6 | 83.5 | 0.66 | 13.7 | –
21 | O=C(O)Cc1ccccc1Nc1c(Cl)cccc1Cl [Diclofenac] | – | – | – | – | – | – | – | – | viability at 0.1 µM (expanded OPCs; [2]): 90.1%; viability at 1 µM (expanded OPCs; [3]): 95.5%; viability at 10 µM (expanded OPCs; [4]): 88.8%; activation at 2 µM [1, 5]: 4.8%; activation at 10 µM [1, 6]: 3.4%
22 | Cc1onc(-c2c(Cl)cccc2Cl)c1C(=O)N[C@@H]1C(=O)N2[C@@H]1SC(C)(C)[C@@H]2C(=O)O [Dicloxacillin] | 93.5 | 91.4 | 76.5 | – | – | – | – | – | activation at 2 µM [1, 7]: -0.7%; activation at 10 µM [1, 8]: -16.9%
23 | CCN(CC)CCOC(=O)C1(C2CCCCC2)CCCCC1 [Dicyclomine] | 99.8 | 87.7 | 52.8 | – | – | – | 32.1 | – | activation at 0.4 µM [1, 13]: -5.5%
24 | O=C(O)c1cc(-c2ccc(F)cc2F)ccc1O [Diflunisal] | 94.0 | 92.0 | 35.0 | – | – | – | 5.6 | – | activation at 0.4 µM [1, 13]: 0.3%
25 | C[C@H]1O[C@@H](O[C@H]2[C@@H](O)C[C@H](O[C@H]3[C@@H](O)C[C@H](O[C@H]4CC[C@@]5(C)[C@H](CC[C@@H]6[C@@H]5C[C@@H](O)[C@]5(C)[C@@H](C7=CC(=O)OC7)CC[C@]65O)C4)O[C@@H]3C)O[C@@H]2C)C[C@H](O)[C@@H]1O [Digoxin] | – | – | – | 103 | 99.8 | 106 | -10.3 | 22.8 | –
26 | COc1ccc([C@@H]2Sc3ccccc3N(CCN(C)C)C(=O)[C@@H]2OC(C)=O)cc1 [Diltiazem] | 81.4 | 67.2 | 48.7 | – | – | – | -2.4 | – | activation at 0.4 µM [1, 13]: -12.2%
